According to US11752125B2, “Anti-neuroinflammatory and protective compounds in Achillea fragrantissima” (THE STATE OF ISRAEL MINISTRY OF AGRICULTURE & RURAL …, priority 2013, dated 2023):

What was measured:
[1] = system: ERK1/2; test: SNP-induced ERK1/2 phosphorylation in N2a cells (ELISA); format: cell-based; settings: concomitant treatment 40 min, total protein not affected
Method: N2a cells were treated concomitantly with SNP and TTF for 40 min. Cells were extracted and the levels of phosphorylated or total ERK1/2 were determined by specific ELISA kits. The results are shown in FIG. 19 and are the mean±SEM of one experiment (n=2).

[2] = system: microglial cells; test: Viability of microglial cells in MMP-9 experiments (crystal violet); format: cell-based, rat; settings: 24 h
Method: [formula] In MMP-9 experiments and in the cellular antioxidant activity (CAA) assays, cell viability was determined by a modification of the crystal violet assay. Microglial cells were treated with the indicated concentrations of achillolide A, followed by stimulation with LPS (4.5 ng/mL). Conditioned media were collected 24 h later and tested for MMP-9 activity by gel zymography as shown in FIG. 23 A. The zymogram represents two independent experiments. The levels of MMP-9 transcripts were measured by quantitative real-time PCR. The results from three technical replicates were normalized to β-actin and are expressed as relative quantity of MMP-9 transcripts in FIG. 23 B. The results are means±SD of one representative experiment out of three experiments. Cell viability was determined 24 h later by the crystal violet assay. Values represent the means±SEM (n=4 for each treatment).

SMILES | effect on SNP-induced phosphorylation of ERK1/2 [1] | toxicity in MMP-9 experiments [2]
COc1cc(-c2oc3cc(OC)c(OC)c(O)c3c(=O)c2O)ccc1O [TTF, 3,5,4′-trihydroxy-6,7,3′-trimethoxyflavone] | significantly inhibited | –
C=C1CCC2=C(CO)C(=O)O[C@H]2/C=C(\C)[C@H](OC(C)=O)CC1=O [achillolide A] | – | no toxicity was observed
